Measurements reported in patent publication US10543212B2, “Substituted amines for treating cardiac diseases” (Cardurion Pharmaceuticals, LLC, priority 2017, dated 2020).

Target: T1, Full-length, GST-tagged, human CaMKIIδ (Homo sapiens, UniProt Q13557)
T1 construct: Full-Length, Glutathione-S-Transferase(GST)-Tagged, Human CaMKIIδ was purchased from Carna Biosciences; purchased Carna Biosciences 02-111
Experiment: CaMKIIδ binding assay (TR-FRET with BODIPY-labeled probe ligand)
Settings: CaMKIIδ binding assay, results of Table 2
Experimental: In vitro CaMKIIδ inhibitory activity was evaluated by a binding assay.
Full-Length, Glutathione-S-Transferase(GST)-Tagged, Human CaMKIIδ was purchased from Carna Biosciences (product #02-111, Kobe, Japan). Full-length bovine calmodulin was purchased from Wako Pure Chemical Industries (Osaka, Japan). Terbium-labeled anti-GST antibody (Tb-anti-GST Ab) was purchased from Life Technologies (Carlsbad, Calif., USA). Boron-dipyrromethene (BODIPY)-labeled probe ligand was synthesized as described below.
Time-Resolved Fluorescence Resonance Energy Transfer (TR-FRET) Assay
All assays were conducted using 384-well, white, flat-bottomed plates (product #784075, Greiner Bio-One, Frickenhausen, Germany) in kinase assay buffer, which consists of 50 mM HEPES pH 7.6, 10 mM MgCl2, 1 mM EGTA, 0.01% Brig-35, 0.1 mM DTT). The fluorescent probe ligand was added at a final concentration of 300 nM to solutions containing 0.21 nM Tb-anti-GST Ab, 1 mM CaCl2), 10 μg/mL calmodulin, and 0.5 nM GST-tagged CaMKIIδ. After shaded incubation of the protein-probe mixture on ice for 30 min, the premix was dispensed in the assay plate including test inhibitors with 4 fold dilution series of eight concentrations. After 1 hr incubation at room temperature, TR-FRET signals were measured in duplicate using an EnVision microplate reader (Perkin Elmer, Waltham, Mass., USA). The solution in each well was excited with a laser (λ=340 nm) reflected by a dichroic mirror (D400/D505 (Perkin Elmer) through an excitation filter (UV (TRF) 340, (Perkin Elmer)), and fluorescence from Tb and BODIPY were detected through two emission filters (CFP 495 (Perkin Elmer) for Tb, Emission 520 (Perkin Elmer) for BODIPY).
The percentage of inhibition of test compounds was calculated according to equation (1) Inhibition (%)=100×([…]−T)/(μH−μL) (1)
Where T is the value of the wells containing test compounds and μH and μL are the mean values of the 0% and 100% inhibition control wells, respectively. The values of the 0 and 100% controls were the signals obtained in the absence and presence of 3 μM its parent compound, respectively. The half maximal inhibitory concentration (IC50) of test compounds was calculated by fitting the data with the logistic equation using XLfit (IDBS, Guildford, UK). The IC50 was classified according to the following activity ranks.

T1 sequence (Q13557 1-478 isoform Q13557-12): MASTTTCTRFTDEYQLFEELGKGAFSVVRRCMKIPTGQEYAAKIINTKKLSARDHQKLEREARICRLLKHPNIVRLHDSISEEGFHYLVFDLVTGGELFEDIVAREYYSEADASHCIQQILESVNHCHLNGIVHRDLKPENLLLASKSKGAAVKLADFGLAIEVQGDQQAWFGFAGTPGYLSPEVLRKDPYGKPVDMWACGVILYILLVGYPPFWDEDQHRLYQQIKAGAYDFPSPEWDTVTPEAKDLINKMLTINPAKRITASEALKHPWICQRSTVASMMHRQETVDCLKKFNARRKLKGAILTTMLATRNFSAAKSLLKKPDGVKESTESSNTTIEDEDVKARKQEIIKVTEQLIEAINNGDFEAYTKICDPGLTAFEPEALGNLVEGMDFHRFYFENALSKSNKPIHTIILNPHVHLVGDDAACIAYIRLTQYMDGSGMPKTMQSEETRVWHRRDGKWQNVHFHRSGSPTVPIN

Structure (SMILES) | IC50 [nM]
COc1cc2c(cc1Nc1ncc(-c3ccc(Cl)c(O[C@@H](C)Cn4cnnn4)c3)cn1)CN(C(=O)C(F)(F)F)CC2 [Example 460, (S)-1-(7-((5-(3-((1-(1H-tetrazol-1-yl)propan-2-yl)oxy)-4-chlorophenyl)pyrimidin-2-yl)amino)-6-methoxy-3,4-dihydroisoquinolin-2(1H)-yl)-2,2,2-trifluoroethan-1-one] | ≥ 100
COc1cc2c(cc1Nc1ncc(-c3ccc(Cl)c(O[C@@H](C)Cn4cnnn4)c3)cn1)CNCC2 [Example 461, (S)-N-(5-(3-((1-(1H-tetrazol-1-yl)propan-2-yl)oxy)-4-chlorophenyl)pyrimidin-2-yl)-6-methoxy-1,2,3,4-tetrahydroisoquinolin-7-amine] | < 10
Cc1ncc(N2CCC(N3CCOCC3)CC2)cc1Nc1ncc(-c2ccc(Cl)c(O[C@@H](C)Cn3cnnn3)c2)cn1 [Example 462, (S)-5-(3-((1-(1H-tetrazol-1-yl)propan-2-yl)oxy)-4-chlorophenyl)-N-(2-methyl-5-(4-morpholinopiperidin-1-yl)pyridin-3-yl)pyrimidin-2-amine] | < 10
COc1cc2c(cc1Nc1ncc(-c3ccc(Cl)c(O[C@@H](C)Cn4cnnn4)c3)cn1)CN(C1COC1)CC2 [Example 463, (S)-N-(5-(3-((1-(1H-tetrazol-1-yl)propan-2-yl)oxy)-4-chlorophenyl)pyrimidin-2-yl)-6-methoxy-2-(oxetan-3-yl)-1,2,3,4-tetrahydroisoquinolin-7-amine] | < 10
COc1cc2c(cc1Nc1ncc(-c3ccc(Cl)c(O[C@@H](C)Cn4cnnn4)c3)cn1)CN(C(=O)CN(C)C)CC2 [Example 464, (S)-1-(7-((5-(3-((1-(1H-tetrazol-1-yl)propan-2-yl)oxy)-4-chlorophenyl)pyrimidin-2-yl)amino)-6-methoxy-3,4-dihydroisoquinolin-2(1H)-yl)-2-(dimethylamino)ethan-1-one] | < 10
COc1cc2c(cc1Nc1ncc(-c3ccc(Cl)c(O[C@@H](C)Cn4cnnn4)c3)cn1)CCNC2 [Example 465, (S)-N-(5-(3-((1-(1H-tetrazol-1-yl)propan-2-yl)oxy)-4-chlorophenyl)pyrimidin-2-yl)-7-methoxy-1,2,3,4-tetrahydroisoquinolin-6-amine] | < 10
COc1cc2c(cc1Nc1ncc(-c3ccc(Cl)c(O[C@@H](C)Cn4cnnn4)c3)cn1)N(C(C)=O)CC2 [Example 466, (S)-1-(6-((5-(3-((1-(1H-tetrazol-1-yl)propan-2-yl)oxy)-4-chlorophenyl)pyrimidin-2-yl)amino)-5-methoxyindolin-1-yl)ethan-1-one] | 10 to 100
COc1cc2c(cc1Nc1ncc(-c3ccc(Cl)c(O[C@@H](C)Cn4cnnn4)c3)cn1)CN(C1COC1)CCC2 [Example 467, (S)-N-(5-(3-((1-(1H-tetrazol-1-yl)propan-2-yl)oxy)-4-chlorophenyl)pyrimidin-2-yl)-7-methoxy-2-(oxetan-3-yl)-2,3,4,5-tetrahydro-1H-benzo[c]azepin-8-amine] | 10 to 100
COc1cc2c(cc1Nc1ncc(-c3ccc(Cl)c(O[C@@H](C)Cn4cnnn4)c3)cn1)CCN(C1COC1)C2 [Example 468, (S)-N-(5-(3-((1-(1H-tetrazol-1-yl)propan-2-yl)oxy)-4-chlorophenyl)pyrimidin-2-yl)-7-methoxy-2-(oxetan-3-yl)-1,2,3,4-tetrahydroisoquinolin-6-amine] | < 10
COCC(=O)N1CCc2cc(Nc3ncc(-c4ccc(Cl)c(O[C@@H](C)Cn5cnnn5)c4)cn3)c(OC)cc2C1 [Example 469, (S)-1-(6-((5-(3-((1-(1H-tetrazol-1-yl)propan-2-yl)oxy)-4-chlorophenyl)pyrimidin-2-yl)amino)-7-methoxy-3,4-dihydroisoquinolin-2(1H)-yl)-2-methoxyethan-1-one] | 10 to 100
COc1cc2c(cc1Nc1ncc(-c3ccc(Cl)c(O[C@@H](C)Cn4cnnn4)c3)cn1)CCN(C(=O)CN1CCOCC1)C2 [Example 470, (S)-1-(6-((5-(3-((1-(1H-tetrazol-1-yl)propan-2-yl)oxy)-4-chlorophenyl)pyrimidin-2-yl)amino)-7-methoxy-3,4-dihydroisoquinolin-2(1H)-yl)-2-morpholinoethan-1-one] | < 10
COc1cc2c(cc1Nc1ncc(-c3ccc(Cl)c(O[C@@H](C)Cn4cnnn4)c3)cn1)CCN(C=O)C2 [Example 471, (S)-6-((5-(3-((1-(1H-tetrazol-1-yl)propan-2-yl)oxy)-4-chlorophenyl)pyrimidin-2-yl)amino)-7-methoxy-3,4-dihydroisoquinoline-2(1H)-carbaldehyde] | 10 to 100
COc1cc(C2CCCNC2)ccc1Nc1ncc(-c2ccc(C#N)c(O[C@@H](C)Cn3cnnn3)c2)cn1 (stereo partly drawn) [Example 472, 2-(((S)-1-(1H-tetrazol-1-yl)propan-2-yl)oxy)-4-(2-((2-methoxy-4-(piperidin-3-yl)phenyl)amino)pyrimidin-5-yl)benzonitrile] | < 10
COc1cc(C2CCCNC2)ccc1Nc1ncc(-c2ccc(Cl)c(O[C@@H](C)Cn3cnnn3)c2)cn1 (stereo partly drawn) [Example 473, 5-(3-(((S)-1-(1H-tetrazol-1-yl)propan-2-yl)oxy)-4-chlorophenyl)-N-(2-methoxy-4-(piperidin-3-yl)phenyl)pyrimidin-2-amine] | < 10
COc1cc2c(cc1Nc1ncc(-c3ccc(Cl)c(O[C@@H](C)Cn4cnnn4)c3)cn1)CCN(C1CCOCC1)C2 [Example 474, (S)-N-(5-(3-((1-(1H-tetrazol-1-yl)propan-2-yl)oxy)-4-chlorophenyl)pyrimidin-2-yl)-7-methoxy-2-(tetrahydro-2H-pyran-4-yl)-1,2,3,4-tetrahydroisoquinolin-6-amine] | < 10
COc1cc2c(cc1Nc1ncc(-c3ccc(Cl)c(O[C@@H](C)Cn4cnnn4)c3)cn1)CCN(CC1COC1)C2 [Example 475, (S)-N-(5-(3-((1-(1H-tetrazol-1-yl)propan-2-yl)oxy)-4-chlorophenyl)pyrimidin-2-yl)-7-methoxy-2-(oxetan-3-ylmethyl)-1,2,3,4-tetrahydroisoquinolin-6-amine] | < 10
COc1cc2c(cc1Nc1ncc(-c3ccc(Cl)c(O[C@@H](C)Cn4cnnn4)c3)cn1)CCN(CC(F)F)C2 [Example 476, (S)-N-(5-(3-((1-(1H-tetrazol-1-yl)propan-2-yl)oxy)-4-chlorophenyl)pyrimidin-2-yl)-2-(2,2-difluoroethyl)-7-methoxy-1,2,3,4-tetrahydroisoquinolin-6-amine] | 10 to 100
COc1cc2c(cc1Nc1ncc(-c3ccc(Cl)c(O[C@@H](C)Cn4cnnn4)c3)cn1)NCC2 [Example 477, (S)-N-(5-(3-((1-(1H-tetrazol-1-yl)propan-2-yl)oxy)-4-chlorophenyl)pyrimidin-2-yl)-5-methoxyindolin-6-amine] | 10 to 100
Cc1cnc(N2CCC(N3CCOCC3)CC2)cc1Nc1ncc(-c2ccc(Cl)c(O[C@@H](C)Cn3cnnn3)c2)cn1 [Example 478, (S)-5-(3-((1-(1H-tetrazol-1-yl)propan-2-yl)oxy)-4-chlorophenyl)-N-(5-methyl-2-(4-morpholinopiperidin-1-yl)pyridin-4-yl)pyrimidin-2-amine] | 10 to 100
COc1cc2c(cc1Nc1ncc(-c3ccc(Cl)c(O[C@@H](C)Cn4cnnn4)c3)cn1)CCN(CC(C)=O)C2 [Example 479, (S)-1-(6-((5-(3-((1-(1H-tetrazol-1-yl)propan-2-yl)oxy)-4-chlorophenyl)pyrimidin-2-yl)amino)-7-methoxy-3,4-dihydroisoquinolin-2(1H)-yl)propan-2-one] | < 10
COc1cc2c(cc1Nc1ncc(-c3ccc(Cl)c(O[C@@H](C)Cn4cnnn4)c3)cn1)CCN(CCO)C2 [Example 480, (S)-2-(6-((5-(3-((1-(1H-tetrazol-1-yl)propan-2-yl)oxy)-4-chlorophenyl)pyrimidin-2-yl)amino)-7-methoxy-3,4-dihydroisoquinolin-2(1H)-yl)ethan-1-ol] | < 10
COc1cnc(N2CCC(C)(O)CC2)cc1Nc1ncc(-c2ccc(Cl)c(O[C@@H](C)Cn3cnnn3)c2)cn1 [Example 481, (S)-1-(4-((5-(3-((1-(1H-tetrazol-1-yl)propan-2-yl)oxy)-4-chlorophenyl)pyrimidin-2-yl)amino)-5-methoxypyridin-2-yl)-4-methylpiperidin-4-ol] | 10 to 100
C[C@@H](Cn1cnnn1)Oc1cc(-c2cnc(Nc3cn(C4CCN(C(=O)OC(C)(C)C)CC4)nc3C(F)(F)F)nc2)ccc1Cl [Example 482, tert-butyl (S)-4-(4-((5-(3-((1-(1H-tetrazol-1-yl)propan-2-yl)oxy)-4-chlorophenyl)pyrimidin-2-yl)amino)-3-(trifluoromethyl)-1H-pyrazol-1-yl)piperidine-1-carboxylate] | 10 to 100
